Measurements published in patent US20210147932A1, “FLUORESCENT PROBES FOR QUANTIFICATION OF DNA DAMAGE AND REPAIR” (The Board of Trustees of the Leland Stanford Junior …, priority 2019, published 2021).
“Also recorded” adds a separate entry of the source.

Assays:
[1] = test system: AP-containing single-stranded DNA oligonucleotide (oligonucleotide 18); test: Reaction of probe with AP-containing single-stranded DNA; assay type: biochemical
Protocol: FIG. 8 provides representative plot for the reaction of Compound (1) (CCVJ1) with single stranded DNA oligonucleotide 18.
(§1) Additional experiments were performed to study the origins of this unusually rapid reaction. […] To test the effect that proximity between the alkoxyamine and planar portion of the probe had on oxime kinetics in our probes, probes were synthesized having variable-length linkers (CCVJ2 and CCVJ3) from aldehyde reactive linkers L2 and L3 respectively (FIG. 2A). […] To test the importance of a double-stranded DNA structure to the rate and fluorescence response, an AP-containing single-stranded DNA oligonucleotide was reacted with CCVJ1. At pH 7, CCVJ1 reacted with a second-order rate constant of 33 M^−1s^−1 with the single-stranded substrate, roughly 5-fold slower than a double-stranded hairpin with identical sequence context (FIG. 8).

[2] = Absorption spectra of free and AP site bound probe; assay type: physicochemical; conditions: in buffer
Description: FIG. 24 provides normalized absorption spectra of free Compound (1) (CCJV1 probe) and AP site bound probe in buffer. Oxime formation with the AP site red shifts absorption from a λmax of 454 nm in the unbound probe to a λmax of 468 nm in the bound probe. The extinction coefficient calculated for the unbound probe is 30,400 M^−1·cm^−1 and 28,700 M^−1·cm^−1 for the bound probe.
Instrumentation: NMR spectra were acquired on a Varian Inova 400 (400 MHz) or 500 (500 MHz) spectrometer and chemical shift reported in parts per million (6) relative to internal standard TMS (0 ppm). Small molecule mass spectra were measured on a Waters 2795 system via electrospray ionization (ESI) with a ZQ single quadrupole MS. Oligonucleotide mass spectra were acquired by MALDI-TOF using a Bruker Microflex MALDI-TOF in negative ion mode. Ultraviolet spectra were measured on a Cary 300. Fluorescence emission and excitation spectra were recorded on a Jobin Yvon-Spex Fluorolog 3 spectrometer with an external temperature controller. Fluorescence time courses were collected on a Fluoroskan Ascent Microplate Fluorometer (Thermo Fisher Scientific). Oligonucleotide concentrations were determined by UV-absorption on a NanoDrop One Microvolume UV-Vis Spectrophotometer (ThermoFisher Scientific). DNA synthesis was carried out on an Applied Biosystems 394 DNA/RNA synthesizer.

[3] = test system: non-lesion containing DNA hairpin (undamaged double stranded DNA); test: Fluorescence of probe with non-lesion DNA hairpin (non-covalent); assay type: binding; conditions: 5 μM probe, 20 μM DNA; over free probe
Protocol: (§2) FIG. 9 provides interaction between Compound (1) (CCVJ1) and DNA. […] (Ex. 485, Em. 538).
(§3) To further explore the hypothesis that the oxime rate acceleration in these AP-site DNAs was related to base stacking interactions, the fluorescence was measured of CCVJ1 in the presence and absence of a non-lesion containing DNA hairpin.

[4] = Off-target light-up with small-molecule carbonyl species; conditions: 5 μM CCVJ1, 500 μM carbonyl species, 37° C.
Protocol: FIG. 13 provides fluorescence response of 5 μM Compound (1) (CCVJ1) with 500 μM of various biologically relevant carbonyl species after 1 h incubation in buffer at 37° C. […] (Ex. 485, Em. 538)
(§4) Since the probe design involves conformational restriction to induce a light-up signal, it was hypothesized that off-target oxime formation with small molecules might induce a relatively small signal relative to DNA, thus providing a measure of selectivity in signaling. […] Another potential aspect is that ketones or aldehydes in the environment might compete with the DNA AP site to react with the aminooxy group, thereby consuming the free probe and reducing the maximum signal. Initial testing of the reactivity of CCVJ1 with AP site-containing DNA in the presence of increasing amounts of competing 2-deoxyribose, the closest small-molecule analogue to the DNA AP site. […] This was repeated this experiment with pyruvic acid, a highly reactive ketone and a common cellular metabolite.

AP site-containing DNA = test: Competition for oxime formation between CCVJ1 and AP site-containing DNA; assay type: biochemical
Protocol: FIG. 6 provides effect of adding exemplary linker NH2CH2CH2ONH2 to the reaction of Compound (1) (CCVJ1) (5 μM) with AP site containing DNA (20 μM) in buffer.
as §2
FIG. 14 provides effect of competing aldehydes/ketones on maximum fluorescence signal.
as §1, §3, §4

AP-DNA = test: Oxime formation kinetics of probe with AP-DNA; assay type: biochemical; conditions: Tris buffer, probe concentration 10-100 μM

Compound: N#C/C(=C\c1cc2c3c(c1)CCCN3CCC2)C(=O)NCCON [CCVJ1]
- increase in fluorescence on reaction with single-stranded DNA [1]: 4 fold
- rate with single-stranded substrate, slower than double-stranded hairpin of identical sequence context ([1]; pH 7): roughly 5 fold
- second-order rate constant with single-stranded substrate ([1]; pH 7): 33 M⁻¹ s⁻¹
- absorption λmax, AP site bound probe [2]: 468 nm
- absorption λmax, unbound probe [2]: 454 nm
- extinction coefficient, bound probe [2]: 28,700 M^−1·cm^−1
- extinction coefficient, unbound probe [2]: 30,400 M^−1·cm^−1
- increase in fluorescence intensity upon addition of non-lesion DNA hairpin [3]: ~2.5 fold
- light-up response with small-molecule ketones and aldehydes [4]: absence of any fluorescence response; also recorded: none of them generated a significant light-up response
- effect of equimolar pseudo AP DNA on rate of apparent oxime formation (AP site-containing DNA; 20 μM pseudo AP hairpin, 20 μM AP DNA, 5 μM CCVJ1): no effect on the rate of apparent oxime formation
- effect of competing 2-deoxyribose on maximum signal (AP site-containing DNA; 1 mM deoxyribose (200 equivalents)): no effect on the maximum signal
- signal retained compared to the AP DNA alone (AP site-containing DNA; 4 mM deoxyribose (800 equivalents)): 85%
- effect of competing pyruvate on overall signal (AP site-containing DNA; up to 200 μM pyruvate (40 equivalents)): no significant reduction in overall signal
- lag time tss of UBER probe coupled assay (AP-DNA): 5 to 50 min
